What was measured:
ROCK2 = ROCK2 (Homo sapiens, UniProt O75116); assay: ROCK2 kinase IC50, HTRF KinEASE-STK S2 kit; assay type: biochemical; conditions: 2 hours at room temperature
Procedure: (§1) The kinase IC50 was determined by a commercialized CISBIO kinase detection kit, HTRF KinEASE-STK S2 kit (62ST2PEC). ROCK2 (01-119) employed in the reaction was purchased from Carna Biosciences.
(§2) Before the assay, the following working solutions as needed were formulated with corresponding reagents according to the instruction of the kinase detection kit: 1×kinase buffer, 5×STK-S2 substrate working solution (1.5 μM) and 5×ATP working solution (1.5 μM), 5×ROCK2 kinase working solution, 4×Streptavidin-XL665 working solution, and 4×STK-Ab-Cryptate 2 detection solution. Then the assay was performed according to the following procedure.
(§3) A solution of a compound at a concentration of 10000 nM was prepared with the 1×kinase buffer containing 2.5% DMSO. Gradient dilution of the solution of the compound was performed with the kinase buffer containing DMSO, so as to obtain solutions of a test compound at 9 different concentrations. In addition to wells of test compounds, a positive well (containing all the reagents except the compound) and a negative well (containing all the reagents except the test compound and kinase) were set. Except for the control wells (positive and negative wells), a solution of a test compound (4 μL) was added to each of the reaction wells, and a solution of 2.5% DMSO was added to the control wells. Then the substrate (2 μM, i.e., 2 μL 5×STK-S2 substrate working solution) was added to each of the reaction wells. The 5×ROCK2 kinase working solution (2 μL, containing 1.4 ng ROCK2 kinase) was added to each of the reaction wells except for the negative well, the volume of which was made up with the 1×kinase buffer (2 μL). The 5×ATP working solution (2 μL) was added to each of the reaction wells, and the mixtures were incubated at room temperature for 2 hours. After the kinase reaction was complete, the 4×Streptavidin-XL665 working solution was added to each of the reaction wells, the solutions were mixed, followed by immediate addition of the 4×STK-Ab-Cryptate 2 detection solution (5 μL), and the mixtures were incubated at room temperature for 1 hour. The fluorescence signal was read on ENVISION (Perkinelmer) (excitation wavelength: 320 inn, and emission wavelength: 665 nm and 615 nm). The inhibitory rate in each well was calculated based on the fluorescence intensity value: ER (Emission Ratio)_(fluorescence intensity at 665 nm/fluorescence intensity at 615 nm); inhibitory rate=(ERpositive−ERtest compound)/(ERpositive−ERnegative)*100%. Curves were plotted and fitted to obtain the median inhibitory concentration (IC50) of each teat compound with the PRISM 5.0 software. According to a biological test method similar to the above, the IC50 values of the compounds on ROCK1 were also tested.

ROCK1 = ROCK1 (Homo sapiens (Human), UniProt Q13464); assay: ROCK1 kinase IC50, biological test method similar to ROCK2 assay; assay type: biochemical
Sequence of ROCK1 (Q13464 whole entry, species assumed): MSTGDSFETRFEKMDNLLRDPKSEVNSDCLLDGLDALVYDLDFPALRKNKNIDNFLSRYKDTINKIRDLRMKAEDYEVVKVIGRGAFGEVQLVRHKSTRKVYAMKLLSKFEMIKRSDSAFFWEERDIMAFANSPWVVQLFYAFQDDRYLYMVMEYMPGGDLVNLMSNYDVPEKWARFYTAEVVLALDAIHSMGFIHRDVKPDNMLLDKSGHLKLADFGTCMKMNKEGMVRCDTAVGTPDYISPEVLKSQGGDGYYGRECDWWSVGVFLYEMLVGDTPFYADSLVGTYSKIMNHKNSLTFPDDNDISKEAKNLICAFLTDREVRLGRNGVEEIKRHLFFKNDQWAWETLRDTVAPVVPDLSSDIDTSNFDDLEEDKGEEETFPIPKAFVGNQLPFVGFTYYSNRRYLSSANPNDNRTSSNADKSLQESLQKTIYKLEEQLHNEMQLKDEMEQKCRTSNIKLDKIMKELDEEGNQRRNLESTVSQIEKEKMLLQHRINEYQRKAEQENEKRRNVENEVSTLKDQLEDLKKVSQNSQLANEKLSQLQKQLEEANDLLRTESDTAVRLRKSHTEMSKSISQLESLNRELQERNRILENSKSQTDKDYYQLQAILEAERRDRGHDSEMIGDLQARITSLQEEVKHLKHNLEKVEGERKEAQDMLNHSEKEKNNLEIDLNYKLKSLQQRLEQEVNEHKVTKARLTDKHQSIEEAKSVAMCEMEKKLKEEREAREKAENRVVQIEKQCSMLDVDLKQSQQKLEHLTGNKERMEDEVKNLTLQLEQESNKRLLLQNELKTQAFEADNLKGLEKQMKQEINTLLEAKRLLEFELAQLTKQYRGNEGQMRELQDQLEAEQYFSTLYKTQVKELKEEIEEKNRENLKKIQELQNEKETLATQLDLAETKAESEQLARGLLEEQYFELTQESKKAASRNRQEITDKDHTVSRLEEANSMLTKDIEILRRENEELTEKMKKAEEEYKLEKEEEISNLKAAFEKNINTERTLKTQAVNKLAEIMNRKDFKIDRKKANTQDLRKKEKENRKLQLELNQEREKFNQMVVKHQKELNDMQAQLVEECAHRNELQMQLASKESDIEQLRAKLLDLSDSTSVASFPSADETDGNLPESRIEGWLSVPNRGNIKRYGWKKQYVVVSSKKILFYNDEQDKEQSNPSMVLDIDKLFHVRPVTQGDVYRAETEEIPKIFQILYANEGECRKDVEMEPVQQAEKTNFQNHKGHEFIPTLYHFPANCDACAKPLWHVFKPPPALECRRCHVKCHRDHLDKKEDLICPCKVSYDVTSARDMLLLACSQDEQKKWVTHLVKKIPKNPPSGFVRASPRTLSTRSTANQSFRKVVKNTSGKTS
Procedure: as §1, §2, §3

Sequence of ROCK2 (O75116 whole entry, looked up): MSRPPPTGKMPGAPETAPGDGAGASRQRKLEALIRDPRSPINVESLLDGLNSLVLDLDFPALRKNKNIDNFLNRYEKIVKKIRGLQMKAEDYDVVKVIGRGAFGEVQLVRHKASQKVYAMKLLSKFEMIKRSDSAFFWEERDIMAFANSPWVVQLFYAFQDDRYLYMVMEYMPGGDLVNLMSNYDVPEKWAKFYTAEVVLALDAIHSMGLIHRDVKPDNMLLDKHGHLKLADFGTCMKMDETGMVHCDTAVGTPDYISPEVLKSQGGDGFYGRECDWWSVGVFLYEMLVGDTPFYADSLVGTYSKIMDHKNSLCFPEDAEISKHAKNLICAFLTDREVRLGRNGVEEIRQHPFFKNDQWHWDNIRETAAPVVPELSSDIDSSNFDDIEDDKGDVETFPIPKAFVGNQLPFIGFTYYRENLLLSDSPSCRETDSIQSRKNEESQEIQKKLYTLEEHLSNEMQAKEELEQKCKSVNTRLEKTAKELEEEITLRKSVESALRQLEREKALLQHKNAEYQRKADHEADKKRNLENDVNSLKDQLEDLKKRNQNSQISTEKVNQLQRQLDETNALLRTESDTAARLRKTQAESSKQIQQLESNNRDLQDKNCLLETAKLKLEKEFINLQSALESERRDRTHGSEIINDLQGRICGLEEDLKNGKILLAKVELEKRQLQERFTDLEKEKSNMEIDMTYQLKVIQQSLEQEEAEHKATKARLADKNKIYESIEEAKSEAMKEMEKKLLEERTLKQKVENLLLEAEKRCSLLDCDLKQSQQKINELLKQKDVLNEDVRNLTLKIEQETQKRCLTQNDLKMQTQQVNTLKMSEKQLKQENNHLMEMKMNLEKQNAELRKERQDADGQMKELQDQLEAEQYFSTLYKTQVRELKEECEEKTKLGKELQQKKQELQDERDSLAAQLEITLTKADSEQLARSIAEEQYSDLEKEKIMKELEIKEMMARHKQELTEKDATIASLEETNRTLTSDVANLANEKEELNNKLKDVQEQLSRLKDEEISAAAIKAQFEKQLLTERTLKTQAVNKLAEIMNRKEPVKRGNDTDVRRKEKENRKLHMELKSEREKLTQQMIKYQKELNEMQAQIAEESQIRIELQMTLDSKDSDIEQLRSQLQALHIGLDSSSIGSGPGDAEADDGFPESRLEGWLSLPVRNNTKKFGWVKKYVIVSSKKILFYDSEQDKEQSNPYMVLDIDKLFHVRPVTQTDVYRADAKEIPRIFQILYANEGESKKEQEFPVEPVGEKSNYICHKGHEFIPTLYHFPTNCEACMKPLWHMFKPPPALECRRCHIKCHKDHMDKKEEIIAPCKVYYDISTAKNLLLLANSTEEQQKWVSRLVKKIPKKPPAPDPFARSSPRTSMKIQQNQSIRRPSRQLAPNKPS

**Q.** For CC(OC(=O)N1Cc2ccc(-c3ncc(F)c(Nc4ccc5c(c4)CCNC5=O)n3)cc2C1)C(F)(F)F (centres unmarked) [C66, 1,1,1-trifluoro-propan-2-yl 5-(5-fluoro-4-((1-oxo-1,2,3,4-tetrahydro-isoquinolin-6-yl)amino)pyrimidin-2-yl) isoindolin-2-carboxylate], which IC50 (ROCK2) is on record?
**A.** 82 nM

**Q.** And the IC50 (ROCK1)?
**A.** > 10000 nM

**Q.** O=C(C1CC(F)(F)C1)N1CCc2cc(-c3ncc(F)c(Nc4ccc5c(=O)[nH]ccc5c4)n3)ccc21 [C15, 6-((2-(1-(3,3-difluoroo-cyclobutane-1-carbonyl)indolin-5-yl)-5-fluoro-pyrimidin-4-yl)amino) isoquinolin-1-(2H)-one] was tested. Which IC50 (ROCK2) did it give?
**A.** 79 nM

**Q.** What about the IC50 (ROCK1) of the same compound?
**A.** > 10000 nM

**Q.** How did the IC50 (ROCK2) turn out when CC(C)(C)OC(=O)N1Cc2ccc(-c3ncc(F)c(Nc4ccc5c(c4)CCNC5=O)n3)cc2C1 [C76, tert-butyl 5-(5-fluoro-4-((1-oxo-1,2,3,4-tetrahydro-isoquinolin-6-yl)amino)pyrimidin-2-yl) isoindoline-2-carboxylate] was run?
**A.** 49 nM

**Q.** What about the IC50 (ROCK1) of the same compound?
**A.** > 10000 nM

**Q.** What does the source list for COCn1c(C(=O)N2CC(F)(F)C2)cc2ccc(-c3nccc(Nc4ccc5c(=O)[nH]ccc5c4)n3)cc21 [C21, 6-((2-(2-(3,3-difluoro-azetidine-1-carbonyl)-1-(methoxy-methyl)-1H-indol-6-yl)pyrimidin-4-yl)amino) isoquinolin-1(2H)-one]?
**A.** IC50 (ROCK2): 108 nM; IC50 (ROCK1): > 10000 nM

**Q.** O=C(OC1CCOC1)N1Cc2ccc(-c3ncc(F)c(Nc4ccc5c(=O)[nH]ccc5c4)n3)cc2C1 (centres unmarked) [C19, tetra-hydrofuran-3-yl 5-(5-fluoro-4-((1-oxo-1,2-dihydro-isoquinolin-6-yl)amino)pyrimidin-2-yl) isoindoline-2-carboxylate] was tested. Which IC50 (ROCK2) did it give?
**A.** 25 nM

**Q.** What about the IC50 (ROCK1) of the same compound?
**A.** > 10000 nM

**Q.** Which IC50 (ROCK2) does the source give for CC(C)(C)OC(=O)N1CCc2sc(-c3ncc(F)c(Nc4ccc5c(c4)CCNC5=O)n3)cc2C1 [C42, tert-butyl 2-(5-fluoro-4-((1-oxo-1,2,3,4-tetrahydroisoquinolin-6-yl)amino)pyrimidin-2-yl)-6,7-dihydrothieno[3,2-c]pyridine-5(4H)-carboxylate] here?
**A.** 31 nM

**Q.** What about the IC50 (ROCK1) of the same compound?
**A.** > 10000 nM

**Q.** CC(C)(C)OC(=O)N1Cc2ccc(-c3ncc(F)c(Nc4ccc5c(=O)[nH]ccc5c4)n3)cc2C1 [C11, tert-butyl 5-(5-fluoro-4-((1-oxo-1,2-dihydro-isoquinolin-6-yl)amino)pyrimiclin-2-yl) isoindoline-2-carboxylate] was tested. Which IC50 (ROCK2) did it give?
**A.** 34 nM

**Q.** And the IC50 (ROCK1)?
**A.** > 10000 nM

**Q.** With CC(CC(=O)N1CCc2sc(-c3ncc(F)c(Nc4ccc5c(c4)CCNC5=O)n3)cc2C1)C(F)(F)F (centres unmarked) [C55, 6-((5-fluoro-2-(5-(4,4,4-trifluoro-3-methylbutanoyl)-4,5,6,7-tetrahydrothieno[3,2-c]pyridin-2-yl)pyrimidin-4-yl)amino)-3,4-dihydroisoquinolin-1(2H)-one] as the compound, how does the IC50 (ROCK2) read?
**A.** 51 nM

**Q.** And the IC50 (ROCK1)?
**A.** > 10000 nM

**Q.** For O=C(N1Cc2ccc(-c3ncc(F)c(Nc4ccc5c(=O)[nH]ccc5c4)n3)cc2C1)N1CC(F)(F)C1 [C79, 6-((2-(2-(3,3-difluoro-azetidine-1-carbonyl)isoindolin-5-yl)-5-fluoro-pyrimidin-4-yl)amino) isoquinolin-1(2H)-one], which IC50 (ROCK2) is on record?
**A.** 46 nM

**Q.** What about the IC50 (ROCK1) of the same compound?
**A.** > 10000 nM

**Q.** Which results are given for CC(OC(=O)N1CCc2cc(-c3nccc(Nc4ccc5c(c4)CCNC5=O)n3)ccc2C1)C(F)(F)F (centres unmarked) [C40, 1,1,1-trifluoro-propan-2-yl 6-(4-((1-oxo-1,2,3,4-tetrahydro-isoquinolin-6-yl)amino)pyrimidin-2-yl)-3,4-dihydro-isoquinolin-2(1H)-carboxylate]?
**A.** IC50 (ROCK2): 270 nM; IC50 (ROCK1): > 10000 nM

**Q.** What does the source list for CC(OC(=O)N1Cc2ccc(-c3ncc(F)c(Nc4ccc5c(=O)[nH]ccc5c4)n3)cc2C1)C(F)(F)F (centres unmarked) [C18, 1,1,1-trifluoro-propan-2-yl 5-(5-fluoro-4-((1-oxo-1,2-dihydro-isoquinolin-6-yl)amino)pyrimidin-2-yl) isoindoline-2-carboxylate]?
**A.** IC50 (ROCK2): 31 nM; IC50 (ROCK1): > 10000 nM

**Q.** How did the IC50 (ROCK2) turn out when O=C(OC1CC(F)(F)C1)N1Cc2ccc(-c3ncc(F)c(Nc4ccc5c(=O)[nH]ccc5c4)n3)cc2C1 [C10, 3,3-difluorocyclobutyl 5-(5-fluoro-4-((1-oxo-1,2-dihydroisoquinolin-6-yl)amino)pyrimidin-2-yl)isoindoline-2-carboxylate] was run?
**A.** 11 nM

**Q.** And the IC50 (ROCK1)?
**A.** > 10000 nM

**Q.** O=C(OC1CCC1)N1CCc2cc(-c3ncc(F)c(Nc4ccc5c(=O)[nH]ccc5c4)n3)ccc2C1 [C26, cyclobutyl 6-(5-fluoro-4-((1-oxo-1,2-dihydro-isoquinolin-6-yl)amino)pyrimidin-2-yl)-3,4-dihydro-isoquinolin-2(1H)-carboxylate] was tested. Which IC50 (ROCK2) did it give?
**A.** 356 nM

**Q.** And the IC50 (ROCK1)?
**A.** > 10000 nM
